Reference: US20070082880A1 (priority 2005, published 2007)

Molecular target: T1, human PKCθ full length enzyme (Homo sapiens, UniProt Q04759)
T1 construct: human PKCθ full length enzyme (Panvera Catalog No. P2996); purchased Panvera P2996
Experiment: PKCθ IMAP Assay
Assay type: biochemical
Details: average value when one or more samples were tested; ATP 6 uM, PKCθ 1 nM
Procedure, shortened: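 IMAP fluorescence polarization after 20 min with binding beads measured phosphorylation of 100 nM 5FAM-peptide. Reactions held 1 nM full-length human PKCθ, 6 uM ATP, 5% DMSO and DTT-containing buffer, 25 min at room temperature. Compounds tested as 2:1 serial dilutions; controls lacked ATP or enzyme.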

T1 sequence (Q04759 whole entry): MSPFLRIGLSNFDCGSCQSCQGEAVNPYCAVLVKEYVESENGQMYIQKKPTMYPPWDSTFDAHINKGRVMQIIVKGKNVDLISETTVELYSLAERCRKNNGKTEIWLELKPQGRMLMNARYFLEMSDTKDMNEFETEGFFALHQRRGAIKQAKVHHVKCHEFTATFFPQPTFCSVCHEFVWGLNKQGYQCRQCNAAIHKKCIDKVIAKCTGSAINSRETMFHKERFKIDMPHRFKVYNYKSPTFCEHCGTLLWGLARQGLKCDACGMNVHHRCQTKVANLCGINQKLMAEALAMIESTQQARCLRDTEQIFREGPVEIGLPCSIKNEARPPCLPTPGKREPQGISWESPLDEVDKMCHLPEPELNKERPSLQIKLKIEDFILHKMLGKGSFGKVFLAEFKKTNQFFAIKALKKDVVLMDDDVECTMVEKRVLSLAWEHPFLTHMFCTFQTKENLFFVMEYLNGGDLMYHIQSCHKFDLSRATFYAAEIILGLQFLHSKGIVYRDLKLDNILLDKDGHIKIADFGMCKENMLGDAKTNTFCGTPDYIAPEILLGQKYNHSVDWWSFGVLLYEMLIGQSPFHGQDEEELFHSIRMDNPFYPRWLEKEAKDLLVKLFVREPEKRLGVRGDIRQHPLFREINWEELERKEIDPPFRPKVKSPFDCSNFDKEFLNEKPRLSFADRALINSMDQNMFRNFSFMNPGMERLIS

IC50 [nM]	Compound
75	Cc1c(Nc2c(C#N)cnc3sc(-c4ccccc4CO)cc23)ccc2[nH]ccc12 [Compound 398, 2-[2-(hydroxymethyl)phenyl]-4-[(4-methyl-1H-indol-5-yl)amino]thieno[2,3-b]pyridine-5-carbonitrile]
1	Cc1c(Nc2c(C#N)cnc3sc(-c4ccccc4OCCN(C)C)cc23)ccc2[nH]ccc12 [Compound 399, 2-{2-[2-(dimethylamino)ethoxy]phenyl}-4-[(4-methyl-1H-indol-5-yl)amino]thieno[2,3-b]pyridine-5-carbonitrile]
437	N#Cc1cnc2sc(/C=C/c3ccccc3)cc2c1Nc1ccc2[nH]ccc2c1 [Compound 400, 4-(1H-indol-5-ylamino)-2-[(E)-2-phenylvinyl]thieno[2,3-b]pyridine-5-carbonitrile]
2450	N#Cc1cnc2sc(/C=C/c3ccc(F)cc3)cc2c1Nc1ccc2[nH]ccc2c1 [Compound 401, 2-[(E)-2-(4-fluorophenyl)vinyl]-4-(1H-indol-5-ylamino)thieno[2,3-b]pyridine-5-carbonitrile]
465	N#Cc1cnc2sc(/C=C/c3cccc(F)c3)cc2c1Nc1ccc2[nH]ccc2c1 [Compound 402, 2-[(E)-2-(3-fluorophenyl)vinyl]-4-(1H-indol-5-ylamino)thieno[2,3-b]pyridine-5-carbonitrile]
394	N#Cc1cnc2sc(/C=C/CCO)cc2c1Nc1ccc2[nH]ccc2c1 [Compound 403, 2-[(1E)-4-hydroxybut-1-en-1-yl]-4-(1H-indol-5-ylamino)thieno[2,3-b]pyridine-5-carbonitrile]
1140	COc1cccc(/C=C/c2cc3c(Nc4ccc5[nH]ccc5c4)c(C#N)cnc3s2)c1 [Compound 404, 4-(1H-indol-5-ylamino)-2-[(E)-2-(3-methoxyphenyl)vinyl]thieno[2,3-b]pyridine-5-carbonitrile]
477	COc1ccc(/C=C/c2cc3c(Nc4ccc5[nH]ccc5c4)c(C#N)cnc3s2)cc1 [Compound 405, 4-(1H-indol-5-ylamino)-2-[(E)-2-(4-methoxyphenyl)vinyl]thieno[2,3-b]pyridine-5-carbonitrile]
12000	Cc1ccc(/C=C/c2cc3c(Nc4ccc5[nH]ccc5c4)c(C#N)cnc3s2)cc1 [Compound 406, 4-(1H-indol-5-ylamino)-2-[(E)-2-(4-methylphenyl)vinyl]thieno[2,3-b]pyridine-5-carbonitrile]
23500	N#Cc1cnc2sc(/C=C/c3ccc(C(F)(F)F)cc3)cc2c1Nc1ccc2[nH]ccc2c1 [Compound 408, 4-(1H-indol-5-ylamino)-2-{(E)-2-[4-(trifluoromethyl)phenyl]vinyl}thieno[2,3-b]pyridine-5-carbonitrile]
3700	N#Cc1cnc2sc(/C=C/Cc3ccccc3)cc2c1Nc1ccc2[nH]ccc2c1 [Compound 409, 4-(1H-indol-5-ylamino)-2-[(1E)-3-phenylprop-1-en-1-yl]thieno[2,3-b]pyridine-5-carbonitrile]
1050	C=C(c1ccccc1)c1cc2c(Nc3ccc4[nH]ccc4c3)c(C#N)cnc2s1 [Compound 410, 4-(1H-indol-5-ylamino)-2-(1-phenylvinyl)thieno[2,3-b]pyridine-5-carbonitrile]
2550	CCCC/C=C/c1cc2c(Nc3ccc4[nH]ccc4c3)c(C#N)cnc2s1 [Compound 411, 2-[(1E)-hex-1-en-1-yl]-4-(1H-indol-5-ylamino)thieno[2,3-b]pyridine-5-carbonitrile]
413	COC/C=C/c1cc2c(Nc3ccc4[nH]ccc4c3)c(C#N)cnc2s1 [Compound 412, 4-(1H-indol-5-ylamino)-2-[(1E)-3-methoxyprop-1-en-1-yl]thieno[2,3-b]pyridine-5-carbonitrile]
7	Cc1c(Nc2c(C#N)cnc3sc(-c4ccc(S(N)(=O)=O)cc4)c(C)c23)ccc2[nH]ccc12 [Compound 413, 4-{5-cyano-3-methyl-4-[(4-methyl-1H-indol-5-yl)amino]thieno[2,3-b]pyridin-2-yl}benzenesulfonamide]
29	CNS(=O)(=O)c1ccc(-c2sc3ncc(C#N)c(Nc4ccc5[nH]ccc5c4C)c3c2C)cc1 [Compound 414, 4-{5-cyano-3-methyl-4-[(4-methyl-1H-indol-5-yl)amino]thieno[2,3-b]pyridin-2-yl}-N-methylbenzenesulfonamide]
642	CNS(=O)(=O)c1ccc(-c2sc3ncc(C#N)c(Nc4ccc5[nH]ccc5c4)c3c2C)cc1 [Compound 415, 4-[5-cyano-4-(1H-indol-5-ylamino)-3-methylthieno[2,3-b]pyridin-2-yl]-N-methylbenzenesulfonamide]
34	Cc1c(Nc2c(C#N)cnc3sc(/C=C/c4ccccc4)cc23)ccc2[nH]ccc12 [Compound 416, 4-[(4-methyl-1H-indol-5-yl)amino]-2-[(E)-2-phenylvinyl]thieno[2,3-b]pyridine-5-carbonitrile]

IC50 [nM]	Compound
33	C=Cc1cc2c(Nc3ccc4[nH]ccc4c3C)c(C#N)cnc2s1 [Compound 417, 4-[(4-methyl-1H-indol-5-yl)amino]-2-vinylthieno[2,3-b]pyridine-5-carbonitrile]
100	Cc1c(Nc2c(C#N)cnc3sc(C4=CCN(C(=O)OC(C)(C)C)CC4)cc23)ccc2[nH]ccc12 [Compound 418, tert-butyl 4-{5-cyano-4-[(4-methyl-1H-indol-5-yl)amino]thieno[2,3-b]pyridin-2-yl}-5,6-dihydropyridine-1(2H)-carboxylate]
954	CC(C)(C)OC(=O)N1CC=C(c2cc3c(Nc4ccc5[nH]ccc5c4)c(C#N)cnc3s2)CC1 [Compound 419, tert-butyl 4-[5-cyano-4-(1H-indol-5-ylamino)thieno[2,3-b]pyridin-2-yl]-3,6-dihydropyridine-1(2H)-carboxylate]
14	Cc1c(Nc2c(C#N)cnc3sc(/C=C/CCO)cc23)ccc2[nH]ccc12 [Compound 420, 2-[(1E)-4-hydroxybut-1-en-1-yl]-4-[(4-methyl-1H-indol-5-yl)amino]thieno[2,3-b]pyridine-5-carbonitrile]
324	Cc1c(Nc2c(C#N)cnc3sc(C4=CCCCC4)cc23)ccc2[nH]ccc12 [Compound 421, 2-cyclohex-1-en-1-yl-4-[(4-methyl-1H-indol-5-yl)amino]thieno[2,3-b]pyridine-5-carbonitrile]
69	COC/C=C/c1cc2c(Nc3ccc4[nH]ccc4c3C)c(C#N)cnc2s1 [Compound 422, 2-[(1E)-3-methoxyprop-1-en-1-yl]-4-[(4-methyl-1H-indol-5-yl)amino]thieno[2,3-b]pyridine-5-carbonitrile]
58	Cc1c(Nc2c(C#N)cnc3sc(-c4cccc(C(=O)N5CCCC5)c4)cc23)ccc2[nH]ccc12 [Compound 423, 4-[(4-methyl-1H-indol-5-yl)amino]-2-[3-(pyrrolidin-1-ylcarbonyl)phenyl]thieno[2,3-b]pyridine-5-carbonitrile]
194	Cc1c(Nc2c(C#N)cnc3sc(-c4ccccc4)c(C)c23)ccc2[nH]ccc12 [Compound 424, 3-methyl-4-[(4-methyl-1H-indol-5-yl)amino]-2-phenylthieno[2,3-b]pyridine-5-carbonitrile]
95	Cc1c(Nc2c(C#N)cnc3sc(/C=C/c4ccccc4)c(C)c23)ccc2[nH]ccc12 [Compound 425, 3-methyl-4-[(4-methyl-1H-indol-5-yl)amino]-2-[(E)-2-phenylvinyl]thieno[2,3-b]pyridine-5-carbonitrile]
119	Cc1c(Nc2c(C#N)cnc3sc(-c4cccc(NS(C)(=O)=O)c4)c(C)c23)ccc2[nH]ccc12 [Compound 426, N-(3-{5-cyano-3-methyl-4-[(4-methyl-1H-indol-5-yl)amino]thieno[2,3-b]pyridin-2-yl}phenyl)methanesulfonamide]
34	Cc1c(Nc2c(C#N)cnc3sc(-c4cccc(S(N)(=O)=O)c4)c(C)c23)ccc2[nH]ccc12 [Compound 427, 3-{5-cyano-3-methyl-4-[(4-methyl-1H-indol-5-yl)amino]thieno[2,3-b]pyridin-2-yl}benzenesulfonamide]
60	CNS(=O)(=O)c1cccc(-c2sc3ncc(C#N)c(Nc4ccc5[nH]ccc5c4C)c3c2C)c1 [Compound 428, 3-{5-cyano-3-methyl-4-[(4-methyl-1H-indol-5-yl)amino]thieno[2,3-b]pyridin-2-yl}-N-methylbenzenesulfonamide]
60	Cc1c(Nc2c(C#N)cnc3sc(-c4cccc(C(=O)NCCN(C)C)c4)c(C)c23)ccc2[nH]ccc12 [Compound 429, 3-{5-cyano-3-methyl-4-[(4-methyl-1H-indol-5-yl)amino]thieno[2,3-b]pyridin-2-yl}-N-[2-(dimethylamino)ethyl]benzamide]
116	Cc1c(Nc2c(C#N)cnc3sc(-c4ccc(C(=O)NCCN(C)C)cc4)c(C)c23)ccc2[nH]ccc12 [Compound 430, 4-{5-cyano-3-methyl-4-[(4-methyl-1H-indol-5-yl)amino]thieno[2,3-b]pyridin-2-yl}-N-[2-(dimethylamino)ethyl]benzamide]
110	Cc1c(Nc2c(C#N)cnc3sc(-c4ccc(S(=O)(=O)NCCO)cc4)c(C)c23)ccc2[nH]ccc12 [Compound 431, 4-{5-cyano-3-methyl-4-[(4-methyl-1H-indol-5-yl)amino]thieno[2,3-b]pyridin-2-yl}-N-(2-hydroxyethyl)benzenesulfonamide]
49	Cc1c(Nc2c(C#N)cnc3sc(-c4nccn4C)cc23)ccc2[nH]ccc12 [Compound 432, 2-(1-methyl-1H-imidazol-2-yl)-4-[(4-methyl-1H-indol-5-yl)amino]thieno[2,3-b]pyridine-5-carbonitrile]
527	Cn1ccnc1-c1cc2c(Nc3ccc4[nH]ccc4c3)c(C#N)cnc2s1 [Compound 433, 4-(1H-indol-5-ylamino)-2-(1-methyl-1H-imidazol-2-yl)thieno[2,3-b]pyridine-5-carbonitrile]
